From patent US10808235B2, “Beta-glucosidase and uses thereof” (priority 2015, dated 2020)

Experiments:
Type in all cases: biochemical
[1] = biological target: T1, Rasamsonia emersonii beta-glucosidase, wild-type, SEQ ID NO: 2 (Rasamsonia emersonii, UniProt Q8TGI8); assay: Kinetics of cellobiose hydrolysis with and without 20 g/l glucose (NMR, MTP scale, model fit), wild type; details: 10 g/l cellobiose, pH 4.5, 65° C., 20 min; Km set to 0.1 g/L
T1 sequence (Q8TGI8 20-857): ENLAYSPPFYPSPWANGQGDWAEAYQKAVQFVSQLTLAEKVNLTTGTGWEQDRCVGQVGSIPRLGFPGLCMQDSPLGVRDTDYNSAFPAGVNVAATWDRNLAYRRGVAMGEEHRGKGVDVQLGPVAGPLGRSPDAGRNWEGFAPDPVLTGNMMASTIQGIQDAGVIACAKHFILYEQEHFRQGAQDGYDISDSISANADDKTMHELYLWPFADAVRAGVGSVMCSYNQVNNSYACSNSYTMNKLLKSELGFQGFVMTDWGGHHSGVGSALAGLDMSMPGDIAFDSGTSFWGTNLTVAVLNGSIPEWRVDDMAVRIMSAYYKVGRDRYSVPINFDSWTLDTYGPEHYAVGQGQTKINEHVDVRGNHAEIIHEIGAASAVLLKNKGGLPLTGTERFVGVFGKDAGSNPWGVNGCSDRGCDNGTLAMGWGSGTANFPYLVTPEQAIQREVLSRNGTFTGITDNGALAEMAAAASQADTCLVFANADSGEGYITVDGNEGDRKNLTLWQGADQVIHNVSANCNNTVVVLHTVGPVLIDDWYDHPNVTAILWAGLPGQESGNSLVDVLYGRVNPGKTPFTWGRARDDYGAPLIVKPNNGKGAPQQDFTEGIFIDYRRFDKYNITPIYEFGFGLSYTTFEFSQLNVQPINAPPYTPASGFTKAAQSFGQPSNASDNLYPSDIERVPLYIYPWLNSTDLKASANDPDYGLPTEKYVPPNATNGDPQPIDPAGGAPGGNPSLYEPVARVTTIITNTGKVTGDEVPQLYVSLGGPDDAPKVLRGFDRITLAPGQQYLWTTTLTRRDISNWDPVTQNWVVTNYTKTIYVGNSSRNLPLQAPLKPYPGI
Experimental: (§1) For the follow-up experiment, five dilutions were made: 2-fold, 4-fold, 8-fold, 16-fold and 32-fold. The beta-glucosidase activity of the variant polypeptides and the wild-type beta-glucosidase was further analyzed in a MTP scale activity assay using cellobiose as substrate and monitoring cellobiose hydrolysis via glucose formation with NMR of the undiluted sample and the five dilutions. The same assay was performed for all dilutions in presence of 20 g/l glucose to determine the glucose tolerance. […] Subsequently, cellobiose and glucose levels in the samples were analyzed with NMR.
(§2) After enzymatic incubation, 100 μl of internal standard solution containing 20 g/I maleic acid and EDTA (40 g/L) in demineralized water, was added to each sample. […] 1D ^1H NMR spectra were recorded on a Bruker Avance III HD 500 MHz, equipped with a He cooled cryo-probe, using a pulse program without water suppression at a temperature of 29° C. with a 90 degrees excitation pulse, acquisition time of 2.7 s and relaxation delay of 30 s. The analyte concentrations (in g/L) were calculated based on the following signals (δ relative to DSS): Cellobiose: H1′ cellobiose peak at 4.50 ppm (d, 1H, J=8 Hz); Glucose: α-H1 glucose/α-H1 cellobiose peak at 5.22 ppm (d, 0.38 H, J=4 Hz). The glucose concentration was determined after correction for cellobiose. […]

[2] = biological target: Rasamsonia emersonii beta-glucosidase variant polypeptide 1 (SEQ ID NO: 2 with substitutions M90L + M335V + M485I) (Rasamsonia emersonii, UniProt Q8TGI8, M335V/M485I/M90L); assay: Kinetics of cellobiose hydrolysis with and without 20 g/l glucose (NMR, MTP scale, model fit), variant polypeptide 1; details: 10 g/l cellobiose, pH 4.5, 65° C., 20 min; Km set to 0.1 g/L
Chain of Rasamsonia emersonii beta-glucosidase variant polypeptide 1 (SEQ ID NO: 2 with substitutions M90L + M335V + M485I) (Q8TGI8 entry or part of it M90L/M335V/M485I): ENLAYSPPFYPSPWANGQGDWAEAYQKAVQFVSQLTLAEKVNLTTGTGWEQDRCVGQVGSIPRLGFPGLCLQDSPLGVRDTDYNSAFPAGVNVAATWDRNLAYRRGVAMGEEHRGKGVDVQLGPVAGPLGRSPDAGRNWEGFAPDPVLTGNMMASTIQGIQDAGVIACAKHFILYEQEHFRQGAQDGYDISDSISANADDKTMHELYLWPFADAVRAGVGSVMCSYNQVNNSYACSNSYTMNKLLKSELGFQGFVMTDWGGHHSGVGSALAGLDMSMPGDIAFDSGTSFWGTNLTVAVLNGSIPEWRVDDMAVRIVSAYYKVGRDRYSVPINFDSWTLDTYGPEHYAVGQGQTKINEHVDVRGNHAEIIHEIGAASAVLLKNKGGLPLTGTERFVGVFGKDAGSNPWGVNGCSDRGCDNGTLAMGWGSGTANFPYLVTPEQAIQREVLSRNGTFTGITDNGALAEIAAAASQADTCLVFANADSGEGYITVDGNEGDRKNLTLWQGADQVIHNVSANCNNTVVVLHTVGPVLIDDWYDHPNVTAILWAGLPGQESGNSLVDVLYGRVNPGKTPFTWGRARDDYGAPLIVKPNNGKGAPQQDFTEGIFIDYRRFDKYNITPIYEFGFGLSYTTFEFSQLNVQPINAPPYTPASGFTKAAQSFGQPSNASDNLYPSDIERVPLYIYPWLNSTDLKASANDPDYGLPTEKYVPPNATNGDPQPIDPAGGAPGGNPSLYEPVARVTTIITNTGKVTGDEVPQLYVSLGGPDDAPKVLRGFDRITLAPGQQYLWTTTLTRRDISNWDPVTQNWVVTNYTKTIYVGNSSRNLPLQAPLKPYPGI
Experimental: as §1, §2

[3] = biological target: Rasamsonia emersonii beta-glucosidase variant polypeptide 2 (SEQ ID NO: 2 with substitution N103A) (Rasamsonia emersonii, UniProt Q8TGI8, N103A); assay: Kinetics of cellobiose hydrolysis with and without 20 g/l glucose (NMR, MTP scale, model fit), variant polypeptide 2; details: 10 g/l cellobiose, pH 4.5, 65° C., 20 min; Km set to 0.1 g/L
Chain of Rasamsonia emersonii beta-glucosidase variant polypeptide 2 (SEQ ID NO: 2 with substitution N103A) (Q8TGI8 entry or part of it N103A): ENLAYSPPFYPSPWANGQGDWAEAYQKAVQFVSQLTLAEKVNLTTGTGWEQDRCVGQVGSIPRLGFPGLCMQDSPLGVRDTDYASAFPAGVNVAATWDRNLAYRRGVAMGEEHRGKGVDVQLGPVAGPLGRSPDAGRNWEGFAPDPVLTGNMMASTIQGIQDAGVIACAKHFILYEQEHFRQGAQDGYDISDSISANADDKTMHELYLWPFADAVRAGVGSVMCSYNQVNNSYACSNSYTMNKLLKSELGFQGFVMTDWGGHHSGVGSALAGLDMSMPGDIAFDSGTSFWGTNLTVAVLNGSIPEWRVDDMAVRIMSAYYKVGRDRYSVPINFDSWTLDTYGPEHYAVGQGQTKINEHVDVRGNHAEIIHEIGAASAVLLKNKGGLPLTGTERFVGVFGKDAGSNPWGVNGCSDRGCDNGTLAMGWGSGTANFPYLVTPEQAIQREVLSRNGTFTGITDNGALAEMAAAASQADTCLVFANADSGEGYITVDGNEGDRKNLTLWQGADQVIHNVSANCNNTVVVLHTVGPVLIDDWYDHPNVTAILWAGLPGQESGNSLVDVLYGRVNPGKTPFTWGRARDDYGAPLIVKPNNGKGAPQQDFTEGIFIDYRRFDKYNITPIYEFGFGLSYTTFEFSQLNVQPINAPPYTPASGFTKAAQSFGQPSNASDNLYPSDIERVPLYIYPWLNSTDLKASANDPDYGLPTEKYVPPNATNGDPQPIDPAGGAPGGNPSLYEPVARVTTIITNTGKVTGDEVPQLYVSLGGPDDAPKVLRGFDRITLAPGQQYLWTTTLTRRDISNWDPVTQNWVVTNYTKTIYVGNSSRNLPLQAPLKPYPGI
Experimental: as §1, §2

[4] = biological target: Rasamsonia emersonii beta-glucosidase variant polypeptide 3 (SEQ ID NO: 2 with substitution G142S) (Rasamsonia emersonii, UniProt Q8TGI8, G142S); assay: Kinetics of cellobiose hydrolysis with and without 20 g/l glucose (NMR, MTP scale, model fit), variant polypeptide 3; details: 10 g/l cellobiose, pH 4.5, 65° C., 20 min; Km set to 0.1 g/L
Chain of Rasamsonia emersonii beta-glucosidase variant polypeptide 3 (SEQ ID NO: 2 with substitution G142S) (Q8TGI8 entry or part of it G142S): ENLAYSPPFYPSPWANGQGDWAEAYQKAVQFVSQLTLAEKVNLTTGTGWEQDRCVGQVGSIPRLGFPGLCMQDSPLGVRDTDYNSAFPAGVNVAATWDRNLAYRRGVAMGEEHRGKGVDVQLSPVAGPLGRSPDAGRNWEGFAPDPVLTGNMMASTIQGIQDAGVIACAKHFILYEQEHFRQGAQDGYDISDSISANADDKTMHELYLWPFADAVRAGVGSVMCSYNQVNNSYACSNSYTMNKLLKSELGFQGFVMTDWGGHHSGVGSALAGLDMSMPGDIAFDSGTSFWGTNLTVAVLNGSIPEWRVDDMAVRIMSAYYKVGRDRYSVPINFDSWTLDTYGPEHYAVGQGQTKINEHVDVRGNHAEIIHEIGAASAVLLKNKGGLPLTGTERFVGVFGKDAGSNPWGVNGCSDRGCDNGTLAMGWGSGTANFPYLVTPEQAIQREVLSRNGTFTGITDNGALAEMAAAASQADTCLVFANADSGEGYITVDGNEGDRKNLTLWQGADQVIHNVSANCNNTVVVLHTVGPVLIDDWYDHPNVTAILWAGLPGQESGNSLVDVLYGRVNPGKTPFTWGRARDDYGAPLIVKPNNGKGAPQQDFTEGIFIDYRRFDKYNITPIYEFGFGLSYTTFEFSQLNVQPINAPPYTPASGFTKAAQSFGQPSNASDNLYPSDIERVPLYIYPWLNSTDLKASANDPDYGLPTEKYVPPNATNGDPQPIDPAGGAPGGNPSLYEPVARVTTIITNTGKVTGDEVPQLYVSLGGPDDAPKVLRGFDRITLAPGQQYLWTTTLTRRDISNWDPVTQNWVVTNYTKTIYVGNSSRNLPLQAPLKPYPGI
Experimental: as §1, §2

[5] = biological target: Rasamsonia emersonii beta-glucosidase variant polypeptide 4 (SEQ ID NO: 2 with substitution L606A) (Rasamsonia emersonii, UniProt Q8TGI8, L606A); assay: Kinetics of cellobiose hydrolysis with and without 20 g/l glucose (NMR, MTP scale, model fit), variant polypeptide 4; details: 10 g/l cellobiose, pH 4.5, 65° C., 20 min; Km set to 0.1 g/L
Chain of Rasamsonia emersonii beta-glucosidase variant polypeptide 4 (SEQ ID NO: 2 with substitution L606A) (Q8TGI8 entry or part of it L606A): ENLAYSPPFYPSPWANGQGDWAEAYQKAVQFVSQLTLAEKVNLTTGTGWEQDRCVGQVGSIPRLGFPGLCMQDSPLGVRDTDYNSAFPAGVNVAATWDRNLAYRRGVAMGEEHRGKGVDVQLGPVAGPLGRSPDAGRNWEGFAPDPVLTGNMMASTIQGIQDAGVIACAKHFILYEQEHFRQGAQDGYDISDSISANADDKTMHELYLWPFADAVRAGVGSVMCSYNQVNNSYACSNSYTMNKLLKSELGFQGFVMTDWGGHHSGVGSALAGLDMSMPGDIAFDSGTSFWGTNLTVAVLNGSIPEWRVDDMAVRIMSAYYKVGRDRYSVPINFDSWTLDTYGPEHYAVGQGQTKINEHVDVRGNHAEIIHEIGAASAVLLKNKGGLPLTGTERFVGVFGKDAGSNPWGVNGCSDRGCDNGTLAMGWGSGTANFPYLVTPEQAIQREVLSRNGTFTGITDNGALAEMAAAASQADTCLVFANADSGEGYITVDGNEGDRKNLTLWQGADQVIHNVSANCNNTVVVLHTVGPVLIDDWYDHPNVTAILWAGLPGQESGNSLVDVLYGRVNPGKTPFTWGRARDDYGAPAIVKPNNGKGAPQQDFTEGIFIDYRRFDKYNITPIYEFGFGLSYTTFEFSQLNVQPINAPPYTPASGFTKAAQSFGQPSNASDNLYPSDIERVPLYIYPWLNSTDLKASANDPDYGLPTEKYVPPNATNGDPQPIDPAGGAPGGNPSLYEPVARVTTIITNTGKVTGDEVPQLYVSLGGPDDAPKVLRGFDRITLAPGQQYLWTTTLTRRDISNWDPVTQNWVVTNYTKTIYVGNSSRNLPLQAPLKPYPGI
Experimental: as §1, §2

[6] = biological target: T1, Rasamsonia emersonii beta-glucosidase, wild-type, SEQ ID NO: 2; assay: Glucose inhibition of initial rate of cellobiose hydrolysis, 100 ml scale (HPLC), wild type; details: 20 g/l glucose, 30 mM cellobiose, pH 4.5, 62° C., 4.5 μg/ml enzyme; read-out: Ratio (V0 in presence of glucose/V0 in absence of glucose)
Experimental: The hits selected from the MTP scale assay were subsequently further characterized by monitoring cellobiose conversion at multiple time points at a larger scale. The beta-glucosidase having the amino acid sequence of SEQ ID NO: 2 was used as reference (parent/wild-type beta-glucosidase). The assay was done as follows: the variant polypeptides and the reference beta-glucosidase were incubated at a concentration of 4.5 μg/ml in a 100 mM NaAc-buffer pH 4.5 with 30 mM cellobiose in a final volume of 100 ml for 2 hours at 62° C. under continuous stirring. […] The glucose and cellobiose content of the samples was determined using a High-Performance Liquid Chromatography System (Agilent 1100) equipped with a refection index detector (Agilent 1260 Infinity). […] The glucose and cellobiose were identified and quantified according to the retention time, which was compared to the external glucose and cellobiose standards ranging from 0.2; 0.4; 1.0; 2.0 g/l.
The concentration cellobiose was plotted against time and the linear part of this curve (the linear part of the cellobiose hydrolysis) was used to calculate the V0 (the initial rate of cellobiose hydrolysis) in the presence and absence of 20 g/l glucose. The ratio of these two calculated rates (V0 in presence of glucose/V0 in absence of glucose) was calculated for the wild-type beta-glucosidase and the variant polypeptides and is listed in Table 2. […]

| Compound | kcat (cellobiose), model prediction [1] | kcat (cellobiose), model prediction [2] | kcat (cellobiose), model prediction [3] | kcat (cellobiose), model prediction [4] | kcat (cellobiose), model prediction [5] | activity at 20000 µg/mL [6] |
| --- | --- | --- | --- | --- | --- | --- |
| OC[C@H]1O[C@@H](O[C@H]2[C@H](O)[C@@H](O)C(O)O[C@@H]2CO)[C@H](O)[C@@H](O)[C@@H]1O (stereo partly drawn) [cellobiose] | 1.0 unitless | 0.9 unitless | 1.1 unitless | 0.8 unitless | 2.7 unitless | – |
| OC[C@H]1OC(O)[C@H](O)[C@@H](O)[C@@H]1O (stereo partly drawn) [glucose] | – | – | – | – | – | 18% |
